One experiment concerns the target ERK-2 kinase (Homo sapiens, UniProt P28482). The experiment can be described thus: Assay against ERK-2 (33-P ATP, myelin basic protein substrate). The settings on record: non-labeled ATP 1 μM, 22° C. Format: biochemical. As for the experimental part: Compounds of the invention were assayed for ability to inhibit ERK-2 kinase using a 33-P radio-ligand binding assay. 33-P labeled ATP was used as the radio-ligand and myelin basic protein was used as the substrate. A non-labeled ATP concentration of 1 μM was used. Plates were incubated at 22° C. before isolation and radioactivity determination by scintillation counting. The IC50 values (concentration causing a half-maximal inhibition) and Hill coefficients (nH) were determined by non-linear regression analysis of competition curves generated with 10 data points using Hill equation curve fitting.

Experiment [1] concerns MMP-1 expression in skin fibroblasts. The experiment is described as follows: MMP-1 expression in skin fibroblasts (Western blot). Type of experiment: cell-based, human. The protocol:
(§1) Fibroblasts were plated on day zero and allowed to attach. One day later, the cells were washed and then treated with control culture medium with or without test compound. Cells were harvested and counted on day-3. The culture medium was then assayed via Western blot analysis to determine expression levels of MMP-1.

The subject of a further experiment is human keratinocytes. The experiment can be described thus: Keratinocyte proliferation assay. Format: cell-based. As for the experimental part: Compounds of the Invention were assayed for their ability to inhibit the proliferation of human keratinocytes. Namely, keratinocytes were plated on day zero and allowed to attach. One day later, the cells were washed and then treated with control culture medium with or without the test compound. Cells were harvested and counted on day-2. Value for the time-zero control was determined (mean and standard deviation based on triplicate experiments with n=9 data points). The untreated control value at day 2 was then determined (mean and standard deviation based on triplicate experiments with n=12 data points). All of the values from treated samples were compared to the control values and are expressed as the change from control±the standard deviation based on the three experiments.

For the next experiment, the system named is human skin fibroblasts. The experiment is described as follows: Skin fibroblast proliferation. The settings on record: at higher concentrations. Format: cell-based. As for the experimental part: as §1

In general, IC50 refers to the midpoint of a concentration-inhibition curve. The term inhibition denotes the drop in the measured response relative to a control, in per cent.

Structures can show the parent of a compound that is named as a salt.

ERK-2 kinase, sequence (P28482 whole entry): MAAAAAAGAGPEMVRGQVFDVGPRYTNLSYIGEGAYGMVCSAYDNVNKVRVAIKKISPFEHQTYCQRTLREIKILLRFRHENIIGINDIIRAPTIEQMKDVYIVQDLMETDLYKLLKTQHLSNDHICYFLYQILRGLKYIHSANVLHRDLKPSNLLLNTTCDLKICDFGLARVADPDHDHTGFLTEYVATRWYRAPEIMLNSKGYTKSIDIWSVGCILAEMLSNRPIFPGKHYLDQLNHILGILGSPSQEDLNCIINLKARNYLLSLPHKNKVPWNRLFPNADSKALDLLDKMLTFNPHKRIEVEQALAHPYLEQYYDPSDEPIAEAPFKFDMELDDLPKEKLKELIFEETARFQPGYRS

In the case of `c1ccc(-c2cn[nH]c2-c2c[nH]c3ncccc23)cc1` [Example 2, 3-[4-Phenyl-2H-pyrazol-3-yl]-1H-pyrrolo[2,3-b]pyridine Hydrochloride], the midpoint of inhibition on ERK-2 kinase, the IC50, lay at 9.86 µM.

As for `Clc1cccc(-c2cn[nH]c2-c2c[nH]c3nc(NCc4ccccc4)ccc23)c1` [Example 3, Benzyl-{3-[4-(3-chlorophenyl)-2H-pyrazol-3-yl]-1H-pyrrolo[2,3-b]pyridin-6-yl}amine Dihydrochloride], the concentration for half-maximal inhibition (IC50) at ERK-2 kinase was determined as 2.23 µM.

For the compound `c1ccc(CNc2ccc3c(-c4[nH]ncc4-c4ccccc4)c[nH]c3n2)cc1` [Example 4, Benzyl-[3-(4-phenyl-2H-pyrazol-3-yl)-1H-pyrrolo[2,3-b]pyridin-6-yl]amine], the half-maximal inhibitory concentration (IC50) at ERK-2 kinase is 11.3 µM.

On to `Cl.Clc1cccc(-c2cn[nH]c2-c2c[nH]c3ncccc23)c1` [Example 1, 3-[4-(3-Chlorophenyl)-2H-pyrazol-3-yl]-1H-pyrrolo[2,3-b]pyridine Hydrochloride], for which the IC50 on ERK-2 kinase was found to be 1.43 µM. In addition, the MMP-1 expression result in experiment [1] (5 μg/mL, culture medium, day-3, Western blot) is listed as “significantly inhibited”. Moreover, the “collagenase (MMP-1) production” value in experiment [1] (at higher concentrations, Western blot) is listed as “significant reduction”. Also, the GI50 in the experiment on human keratinocytes (calculated from Table 2 data, read-out: GI50 (inhibition of keratinocyte proliferation)) is 4.36 µM. Also, in the experiment with human keratinocytes (test concentration 0.03 μM, cells counted on day-2, change from control), the inhibition at 0.03 µM is -20%. For the same compound, the inhibition at 0.15 µM with human keratinocytes (test concentration 0.15 μM, cells counted on day-2, change from control) is -13%. In addition, in the experiment with human keratinocytes (test concentration 0.30 μM, cells counted on day-2, change from control), the inhibition at 0.3 µM is -6%. The inhibition at 1.51 µM in the experiment on human keratinocytes (test concentration 1.51 μM, cells counted on day-2, change from control) turned out to be 8%. For the same compound, the inhibition at 3.02 µM with human keratinocytes (test concentration 3.02 μM, cells counted on day-2, change from control) turned out to be 21%. The inhibition at 6.04 µM in the experiment with human keratinocytes (test concentration 6.04 μM, cells counted on day-2, change from control) was found to be 72%. The inhibition at 15.1 µM with human keratinocytes (test concentration 15.1 μM, cells counted on day-2, change from control) turned out to be 118%. For the same compound, the “effect on fibroblast proliferation” value in the experiment with human skin fibroblasts was “minimal effect”.

The values above are taken from patent US8697697B2, “Pyrazole derivatives as ERK inhibitors” (Kinentia Biosciences LLC, priority 2011, dated 2014).
